These results are taken from PubChem BioAssay AID743178 (NMMLSC, 2013).

Active and inactive are the calls of the source.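 The calls were made as follows: active = percent MAC1 positive of at least 15% at the highest dose, plus EC50 under 10 µM; inactive = the rest.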

By EC50 is commonly meant the concentration at which the effect is half-maximal.

Test [1] can be described thus: MAC1 induction in U937 cells – cell-based, MAC1 flow cytometry, set 1, SAR follow-up (AID 743178). The following applies: U937 myeloid differentiation, MAC1 flow cytometry, 4 d; at 10 µM (top of the series). For orientation: Flow cytometry measures light scatter and fluorescence of single cells or particles in a stream.
In test [2] the test system is U937 myeloid differentiation, MAC1 flow cytometry, 4 d. The description is as above.

Turning to `O=C(CNC(=O)c1ccc(Cl)cc1)N[C@@H]1CCCc2ccccc21`, in test [1], the percent MAC1 positive was 1.65% (inactive).
On the same count and under the same terms, in the case of `CC(NC(=O)CCNC(=O)c1ccc(Cl)cc1)c1ccc(F)cc1` (centres undefined) it was 3.42% (inactive).
As for `O=C(CCNC(=O)c1cccc(Cl)c1)N[C@@H]1CCCc2ccccc21`, the EC50 in test [2] is 7.94 µM.
Take `O=C(NC1CCOc2ccccc21)C1CCCN(C(=O)c2ccc(Cl)cc2)C1` (centres undefined): the percent MAC1 positive in test [1] is 0.843% (inactive).
On the same count and under the same terms, the same measure for `Cc1ccc(C)c(OCCn2cc(C(=O)O)c3ccccc32)c1`: 0% (inactive).
For the compound `O=C(CCNC(=O)c1ccc2c(c1)OC(F)(F)O2)N[C@@H]1CCCc2ccccc21`, in test [2], the EC50 was 4.41 µM.
With `O=C(NC1CCc2ccccc21)C1CCCN(C(=O)c2ccc(Cl)cc2)C1` (centres undefined), the percent MAC1 positive in test [1] was 1.16% (inactive).
`CC(NC(=O)C1CCCN(C(=O)c2ccc(Cl)cc2)C1)c1ccccc1` (centres undefined): in test [1], the percent MAC1 positive was 1.23% (inactive).
As to `O=C(O)c1ccccc1OCc1ccccc1Br`, the percent MAC1 positive in test [1] is 0% (inactive).
With `NCCC(=O)N[C@@H]1CCCc2ccccc21`, in test [1], the percent MAC1 positive is 1.1% (inactive).
Same read-out and setting: the same measure for `O=C(CNC(=O)c1ccc(OC(F)(F)F)cc1)N[C@@H]1CCCc2ccccc21`: 1.56% (inactive).
As for `O=C(CCNC(=O)c1ccc(OC(F)(F)F)cc1)N[C@@H]1CCCc2ccccc21`, in test [2], the EC50 is 2.07 µM.
In the case of `O=C(CCNC(=O)c1ccccc1)N[C@@H]1CCCc2ccccc21`, the percent MAC1 positive in test [1] was 1.8% (inactive).
The same measure, in the same setting: the same measure for `CC(=O)NCCC(=O)N[C@@H]1CCCc2ccccc21`: 0.776% (inactive); for `CC(C)(C)OC(=O)NCCC(=O)N[C@H]1CCCc2ccccc21`: 1.16% (inactive).
Take `COc1ccc(C(=O)NCCC(=O)N[C@@H]2CCCc3ccccc32)cc1`: the percent MAC1 positive in test [1] is 28.1% (inactive).
On the same count and under the same terms, the same measure for `CC(C)(C)OC(=O)NCCC(=O)N[C@@H]1CCCc2ccccc21`: 1.18% (inactive).
`O=C(Cc1ccc(Cl)cc1)NCCC(=O)N[C@@H]1CCCc2ccccc21`: the percent MAC1 positive in test [1] is 13.3% (inactive).
As for `O=C(CCNC(=O)c1ccc(Cl)cc1)NC1CCCc2ccccc21` (centres undefined), the EC50 in test [2] was 4.57 µM.
Regarding `O=C(CCNC(=O)c1ccc(C(F)(F)F)cc1)N[C@@H]1CCCc2ccccc21`, the EC50 in test [2] was 2.26 µM.
As to `O=C(CNC(=O)c1ccc(C(F)(F)F)cc1)N[C@@H]1CCCc2ccccc21`, the percent MAC1 positive in test [1] was 1.08% (inactive).
In the case of `O=C(CNC(=O)c1ccc(Cl)c(Cl)c1)N[C@@H]1CCCc2ccccc21`, the percent MAC1 positive in test [1] is 1.68% (inactive).
Regarding `O=C(CCNC(=O)c1ccc(Cl)c(Cl)c1)N[C@@H]1CCCc2ccccc21`, the EC50 in test [2] was 3.4 µM.
For `N#Cc1ccc(C(=O)NCCC(=O)N[C@@H]2CCCc3ccccc32)cc1`, the percent MAC1 positive in test [1] is 0.711% (inactive).
Still for that read-out and setting: the same measure for `CC(NC(=O)CCNC(=O)c1ccc(Cl)cc1)c1ccc2c(c1)OCO2` (centres undefined): 1.17% (inactive).
On the same count and under the same terms, in the case of `O=C(CCNC(=O)c1ccc(Cl)cc1)N[C@H]1CCCc2ccccc21` it was 2.12% (inactive); in that of `O=C(CCCNC(=O)c1ccc(Cl)c(Cl)c1)N[C@@H]1CCCc2ccccc21`, 1.27% (inactive); in that of `CC(c1ccccc1)N(C)C(=O)CCNC(=O)c1ccc(Cl)cc1` (centres undefined), 0.788% (inactive).
For the compound `O=C(CCCNC(=O)c1ccc(Cl)cc1)N[C@@H]1CCCc2ccccc21`, the percent MAC1 positive in test [1] was 1.04% (inactive).
On the same count and under the same terms, in the case of `O=C(O)c1cccnc1Nc1ccc(Cl)cc1` it was 85% (inactive); in that of `O=C(CCCNC(=O)c1ccc(OC(F)(F)F)cc1)N[C@@H]1CCCc2ccccc21`, 0.912% (inactive).
For the compound `Cc1cccc(C(=O)NCCC(=O)NC2CCCc3ccccc32)c1` (centres undefined), the percent MAC1 positive in test [1] was 1.09% (inactive).
As to `O=C(CCNC(=O)c1ccc(Cl)cc1)N[C@@H]1CCc2ccccc21`, the percent MAC1 positive in test [1] is 6% (inactive).
The same measure, in the same setting: in the case of `COc1ccccc1C(C)NC(=O)CCNC(=O)c1ccc(Cl)cc1` (centres undefined) it was 0.779% (inactive).
The same measure, in the same setting: in the case of `O=C(CCCNC(=O)c1ccc(C(F)(F)F)cc1)N[C@@H]1CCCc2ccccc21` it was 2.46% (inactive); in that of `C[C@@H](NC(=O)CCNC(=O)c1ccc(Cl)cc1)c1ccccc1`, 1.51% (inactive).
Same read-out and setting: in the case of `O=C(CCNC(=O)c1ccc(Cl)cc1)NC1CCCCC1` it was 1.63% (inactive).
For `Cc1ccc(C(=O)NCCC(=O)N[C@@H]2CCCc3ccccc32)cc1`, the EC50 in test [2] was 4.21 µM.
Same read-out and setting: in the case of `O=C(CCNC(=O)c1ccc(Cl)cc1)N[C@@H]1CCCc2ccccc21` it was 2.78 µM.
